Values of other authors in publication PMC7060171, “Evaluation of Radiation dosimetry of ^99mTc-HYNIC-PSMA and imaging in prostate cancer” (Scientific Reports, 2020).
Where two headings read alike, the source gives them in different places.

[1] = conventional 99mTc-labelled radiopharmaceuticals used in SPECT/CT scans

Compound | Effective dose | Effective dose [1]
O=C(O)CC[C@H](NC(=O)N[C@@H](CCC(=O)N[C@@H](CCCCN(Cc1nccn1CC(=O)N(CC(=O)O)CC(=O)O)Cc1nccn1CC(=O)N(CC(=O)O)CC(=O)O)C(=O)O)C(=O)O)C(=O)O.[99Tc+4].[CH-]=O.[CH-]=O.[CH-]=O.[Cl-] [^99mTc-MIP-1404] | 8.8E-03 mSv/MBq | –
O=C(O)CC[C@H](NC(=O)N[C@@H](CCCCNC(=O)[C@H](Cc1ccc2ccccc2c1)NC(=O)c1ccc(CNC(=O)[C@H](CCC(=O)O)NC(=O)[C@H](CCC(=O)O)NC(=O)c2ccc([18F])nc2)cc1)C(=O)O)C(=O)O [^18F-PSMA-1007] | 2.2E-02 mSv/MBq | –
O=C([O-])CN(CCN(CC(=O)[O-])Cc1cc(CCC(=O)NCCCCCC(=O)NCCCC[C@H](NC(=O)N[C@@H](CCC(=O)O)C(=O)O)C(=O)O)ccc1[O-])Cc1cc(CCC(=O)O)ccc1[O-].[68Ga+3].[OH3+] [^68Ga-PSMA-11] | 2.36E-02 mSv/MBq | –
O=C(O)CC[C@H](NC(=O)N[C@@H](CCCCNC(=O)c1ccc([18F])nc1)C(=O)O)C(=O)O [^18F-DCFPyL] | 1.39E-02 mSv/MBq | –
[C-]#[N+]CC(C)(C)OC.[C-]#[N+]CC(C)(C)OC.[C-]#[N+]CC(C)(C)OC.[C-]#[N+]CC(C)(C)OC.[C-]#[N+]CC(C)(C)OC.[C-]#[N+]CC(C)(C)OC.[Tc] [MIBI] | – | 7.83E-03 mSv/MBq
O=P(O)(O)CP(=O)(O)O (99mTc complex, metal not drawn) [MDP] | – | 5.68E-03 mSv/MBq
